From the supplement of paper PMC11061612

Columns and labels:
[1] = tested on: COR-L279 (Small Cell Lung Carcinoma); assay: Bliss excess, mean over the matrix (fraction); higher = more synergy
Procedure, shortened: (§1)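 Bliss excess equals the observed combination effect minus the expected value EA + EB − EA·EB, where EA and EB are the effects of each agent alone. Combination Emax is the second-highest inhibition within the matrix. Inhibition was scaled from CellTiter-Glo 2.0 luminescence, with 0 set by vehicle wells and 1 by blank wells, after 72 hours of two-drug dosing of cells plated in 1536-well plates.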

[2] = tested on: CW-2 (Colorectal Carcinoma); assay: as above
Procedure, shortened: as §1

[3] = tested on: DMS-114 (Small Cell Lung Carcinoma); assay: as above
Procedure, shortened: as §1

[4] = tested on: KP-3 (Pancreatic Carcinoma); assay: as above
Procedure, shortened: as §1

[5] = tested on: KU812 (Chronic Myelogenous Leukemia); assay: as above
Procedure, shortened: as §1

[6] = tested on: KYSE-270 (Esophageal Squamous Cell Carcinoma); assay: as above
Procedure, shortened: as §1

M059J (Glioblastoma) = assay: as above
Procedure, shortened: as §1

[7] = tested on: MN-60 (B-Lymphoblastic Leukemia); assay: as above
Procedure, shortened: as §1

[8] = tested on: MOG-G-CCM (Low Grade Glioma); assay: as above
Procedure, shortened: as §1

[9] = tested on: NCCIT (Other Solid Carcinomas); assay: as above
Procedure, shortened: as §1

NCI-H2731 (Mesothelioma) [10] = assay: as above
Procedure, shortened: as §1

[11] = tested on: NCI-H3122 (Lung Adenocarcinoma); assay: as above
Procedure, shortened: as §1

[12] = tested on: NCI-H520 (Squamous Cell Lung Carcinoma); assay: as above
Procedure, shortened: as §1

[13] = tested on: NCI-H526 (Small Cell Lung Carcinoma); assay: as above
Procedure, shortened: as §1

[14] = tested on: NCI-H929 (Plasma Cell Myeloma); assay: as above
Procedure, shortened: as §1

[15] = tested on: OCI-AML3 (Acute Myeloid Leukemia); assay: as above
Procedure, shortened: as §1

SJSA-1 (Osteosarcoma) = assay: as above
Procedure, shortened: as §1

[16] = tested on: SK-GT-4 (Esophageal Adenocarcinoma); assay: as above
Procedure, shortened: as §1

[17] = tested on: ST486 (Burkitt's Lymphoma); assay: as above
Procedure, shortened: as §1

NCI-H2731 (Mesothelioma) [18] = assay: combination Emax (second highest fraction inhibited in the dose matrix, 72 h); higher = more inhibition; extreme values may be limits of the assay
Procedure, shortened: as §1

SMILES | Bliss excess [1] | Bliss excess [2] | Bliss excess [3] | Bliss excess [4] | Bliss excess [5] | Bliss excess [6] | Bliss excess (M059J (Glioblastoma)) | Bliss excess [7] | Bliss excess [8] | Bliss excess [9] | Bliss excess (NCI-H2731 (Mesothelioma) [10]) | Bliss excess [11] | Bliss excess [12] | Bliss excess [13] | Bliss excess [14] | Bliss excess [15] | Bliss excess (SJSA-1 (Osteosarcoma)) | Bliss excess [16] | Bliss excess [17] | combination Emax (NCI-H2731 (Mesothelioma) [18])
O=C(c1cc(Cc2n[nH]c(=O)c3ccccc23)ccc1F)N1CCN(C(=O)C2CC2)CC1 [Olaparib] + Cc1c2c(nn1C)CSCc1cc(n(C)n1)CSc1cc(c3ccccc3c1)OCCCc1c(C(=O)O)n(C)c3c-2c(Cl)ccc13 [AZD5991] (first compound max 10 µM, 7x7, partner max 1 µM) | 0.0494 | -0.03 | 0.0106 | -0.0576 | -0.0111 | -0.0303 | 0.0008 | -0.0496 | -0.0519 | 0.0176 | -0.0452 | -0.0156 | -0.0289 | 0.0251 | -0.0215 | 0.0224 | -0.0401 | -0.061 | 0.0593 | 0.0516
N#Cc1cnc(Nc2cc(NC[C@H]3CNCCO3)c(C(F)(F)F)cn2)cn1 [SRA737] + C=CCn1c(=O)c2cnc(Nc3ccc(N4CCN(C)CC4)cc3)nc2n1-c1cccc(C(C)(C)O)n1 [AZD1775] (first compound max 10 µM, partner max 1 µM) | 0.116 | 0.0162 | -0.0231 | 0.0086 | 0.0668 | 0.136 | 0.073 | -0.0125 | 0.0229 | 0.0855 | 0.0007 | 0.0718 | 0.055 | 0.0145 | 0.0295 | 0.171 | 0.0091 | 0.003 | 0.0356 | 0.357
